Results taken from PMC9964459, “Nornidulin, A New Inhibitor of Plasmodium falciparum Malate: Quinone Oxidoreductase (PfMQO) from Indonesian Aspergillus sp. BioMCC f.T.8501” (Pharmaceuticals, 2023).

Target: T1, Plasmodium falciparum malate:quinone oxidoreductase (PfMQO) (Plasmodium falciparum, UniProt C6KT09)
T1 construct: gene PF3D7_0616800; PfMQO-membrane fraction from PfMQO-expressing recombinant Escherichia coli
T1 sequence (C6KT09 1-521): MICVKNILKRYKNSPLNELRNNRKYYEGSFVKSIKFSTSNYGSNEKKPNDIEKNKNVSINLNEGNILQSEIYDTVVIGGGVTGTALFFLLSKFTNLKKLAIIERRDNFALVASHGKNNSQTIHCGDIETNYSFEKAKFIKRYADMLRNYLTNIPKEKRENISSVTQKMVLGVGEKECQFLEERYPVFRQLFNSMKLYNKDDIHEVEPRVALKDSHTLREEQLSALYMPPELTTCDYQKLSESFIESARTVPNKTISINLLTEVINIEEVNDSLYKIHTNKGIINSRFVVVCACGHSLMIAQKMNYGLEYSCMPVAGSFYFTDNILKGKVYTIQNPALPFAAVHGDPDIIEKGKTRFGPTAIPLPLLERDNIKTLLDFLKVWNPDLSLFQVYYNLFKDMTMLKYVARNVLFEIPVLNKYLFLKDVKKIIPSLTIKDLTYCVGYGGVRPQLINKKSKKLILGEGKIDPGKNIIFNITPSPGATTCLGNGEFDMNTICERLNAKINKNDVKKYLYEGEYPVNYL
Assay: DCIP-reduction enzyme assay (A600, malate/decylubiquinone) with recombinant PfMQO membrane fraction
Format: biochemical

- IC50: 51 µM
SMILES: C/C=C(\C)c1c(Cl)c(O)c(C)c2c1Oc1c(Cl)c(O)c(Cl)c(C)c1C(=O)O2 [Fr10, nornidulin]
